Series [1] concerns proteases secreted by A. baumannii ATCC 19606. The series can be described thus: in vitro. The note with it: Acinetobacter baumannii, A. baumannii ATCC 19606 culture supernatant, pH 8. Summed up:
(§1)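 Cell-free culture supernatants (overnight, 37°C; MH broth for bacteria, 2% tryptone/2% dextrose for yeast) were centrifuged, adjusted to pH 8.0 and 0.22 μm filtered. Peptides at 0.5 mg/mL were incubated in supernatant 24 h at 37°C; remaining intact peptide measured by RP-HPLC, with peptide-free supernatant as negative control.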

Series [2] has as its system proteases secreted by P. aeruginosa ATCC 27853. As to the kind of experiment: in vitro. The following applies: Pseudomonas aeruginosa, P. aeruginosa ATCC 27853 culture supernatant, pH 8. Summed up: as §1
Series [3] has as its system proteases secreted by C. albicans ATCC 10231. As to the kind of experiment: in vitro. The note with it: C. albicans ATCC 10231 culture supernatant (2% tryptone/2% dextrose), pH 8.0, 0.22 μm filtered; peptide 0.5 mg/mL; 37°C, 24 h; RP-HPLC. Summed up:
as §1

Series [4] deals with all of the bacterial and fungal supernatants tested. The following applies: pH 8.0, peptide 0.5 mg/mL, 37°C, 24 h, RP-HPLC. The protocol: The stabilities of the peptides toward proteases secreted by E. coli ATCC 25922, P. aeruginosa ATCC 27853, A. baumannii ATCC 19606, S. aureus ATCC 25923, and C. albicans ATCC 10231 were also examined. Microbial supernatants were prepared by resuspending single colonies of each strain in 20 mL of an appropriate culture medium followed by incubation at 37°C overnight. MH broth and 2% tryptone/2% dextrose were used as the culture media for bacteria and yeast, respectively. Each culture was then centrifuged at 12,000 × g for 10 min and the supernatant was adjusted to pH 8.0 with HCl or NaOH and then filtered through a 0.22 μm sterile filter membrane ([Zaet et al., 2017]). The peptides were then dissolved in the filtered supernatants to a concentration of 0.5 mg/mL, and the peptide-free supernatants were used as negative controls. The samples were incubated at 37°C for 24 h in a water bath and then analyzed by RP-HPLC as described above.

A further series deals with P. aeruginosa ATCC 9027. As to the kind of experiment: In vivo antibacterial activity, lethal intraperitoneal infection. The following applies: BALB/c mice, lethal i.p. dose of P. aeruginosa ATCC 9027, 10 mg/kg i.p. at 1 and 8 h post-infection, n = 10. On the procedure: The in vivo antibacterial activities of the peptides were evaluated in BALB/c mice using P. aeruginosa ATCC 9027 as a test strain. A total of 20 mice (6 weeks old, approximate weight: 18–20 g, SFP grade) were first used to measure the minimal lethal doses (MLD) with 5 mice for each inoculum. Cell numbers of selected strains were determined from the colony numbers from the plate count agar and four inocula (1 × 10^6, 5 × 10^6, 1 × 10^7, and 5 × 10^7 CFU/mouse) were administered via intraperitoneal injection. The minimal lethal dose was determined by measuring the mortality rate after 72 h. BALB/c mice were then injected intraperitoneally with a lethal dose of P. aeruginosa ATCC 9027. […] Colistin (10 mg/kg) was used as a positive control. The survival of the animals was monitored over 7 d.

Series [5] in a line: Circular dichroism spectroscopy, secondary structure. The class given is physicochemical. The following applies: 0.1 mg/mL, 25°C; for [θ]222: average of three scans; for %α-helix: from [θ]222. The protocol:
The secondary structures of Pep05 and its derivatives were investigated using a Chirascan qCD Spectrometer (Applied Photophysics, United Kingdom). The peptides were dissolved to a final concentration of 0.1 mg/mL in four different solvents, namely, 10 mM phosphate buffer (PB; pH 7.4), 50% TFE/PB, 25 mM SDS in PB, and 0.1% LPS in PB ([Kim et al., 2017]). Circular dichroism (CD) spectra were recorded from 260 to 190 nm at 25°C as the average of three scans. Data were collected using a path length of 0.1 cm, scan speed of 50 nm/min, bandwidth of 1.0 nm, response time of 1 s, and resolution of 0.1 nm ([Khara et al., 2016]). Following background subtraction, the observed ellipticity [θ]obs (mdeg) was converted to molar ellipticity [θ] (deg⋅cm^2⋅dmol^–1) using the equation [θ] = [θ]obs(MRW/10cl), where [θ]obs is the observed ellipticity corrected for the blank at a given wavelength (mdeg), MRW is the mean residue molecular weight (molecular weight/number of amino acids), c is the peptide concentration (mg/mL), and l is the path length (cm). Assuming a two-state model, the percentage of α-helix structure was calculated using the following equation: α-helical content = −([θ]222 + 2000)/30000 × 100% ([Jia et al., 2017]).
The influence of the amino acid substitutions on the peptide secondary structure was investigated using CD spectroscopy under different conditions, including 10 mM PB at pH 7.4 (mimicking an aqueous environment), 50% TFE (mimicking a hydrophobic bacterial membrane environment), 25 mM SDS (mimicking a negatively charged bacterial membrane environment), and 0.1% LPS (mimicking a bacterial outer membrane environment).
(CD spectra are sensitive to the conformation of chiral molecules.)

Where a SMILES comes first, the peptide text is derived from it. [ ]: non-standard residue; d: D form. 2Thi = N[C@@H](Cc1cccs1)C(=O)O; Aib = CC(C)(N)C(=O)O

Description for human plasma proteases: The peptides were mixed with plasma from healthy volunteers to a final concentration of 0.1 mg/mL and incubated at 37°C. Aliquots (20 or 40 μL) were removed after 0, 2, 4, 6, 8, 12, 24, and 36 h, mixed with 0.05% TFA to a final concentration of 0.01 mg/mL, and incubated on ice for 10 min. After centrifugation (12,000 × g, 5 min), the supernatant was stored at −20°C. The samples were analyzed as described in section “Hydrophobicity” and quantified as described in section “Stability Toward Tryptic Degradation.” All stability tests were performed at least in triplicate. The identities of the metabolites after 12 h of degradation by plasma proteases were determined by LC-MS on a Waters Acquity UPLC-QDa system.

With `CC(C)C[C@H](NC(=O)[C@H](CC(C)C)NC(=O)[C@@H](CCCCN)NC(=O)[C@@H](CCCCN)NC(=O)[C@H](Cc1ccccc1)NC(=O)[C@H](CC(C)C)NC(=O)[C@@H](CCCNC(=N)N)NC(=O)[C@H](N)CCCCN)C(=O)N[C@H](CCCCN)C(=O)N[C@@H](Cc1ccc(O)cc1)C(=O)N[C@@H](CC(C)C)C(=O)N[C@H](CCCNC(=N)N)C(=O)N[C@H](CCCCN)C(=O)N[C@@H](Cc1ccccc1)C(N)=O` [DP06] (H-[dK][dR]LF[dK][dK]LL[dK]YL[dR][dK]F-NH2), the “degradation products by plasma proteases (LC-MS)” value in the series with human plasma proteases was “No obvious degradation products”. Also, the share remaining (in general, the share of the starting amount still present when the sample was taken) at 24 h, 0.5 mg/mL in series [1] was determined as 63.5 ± 3.28%; in series [2] it was 61.2 ± 6.06%. In series [3], the “Percent of remained peptide amount after incubation (%)” value turned out to be 62.07 ± 3.27 %. For the same molecule, the “original peptide remaining in microbial supernatants” value in series [4] was “more than 60%”.

As for `CC(C)C[C@H](NC(=O)[C@H](Cc1ccc(O)cc1)NC(=O)[C@H](CCCCN)NC(=O)[C@H](CC(C)C)NC(=O)[C@H](CC(C)C)NC(=O)[C@H](CCCCN)NC(=O)[C@H](CCCCN)NC(=O)[C@H](Cc1ccccc1)NC(=O)[C@H](CC(C)C)NC(=O)[C@H](CCCNC(=N)N)NC(=O)C(C)(C)N)C(=O)N[C@@H](CCCNC(=N)N)C(=O)N[C@@H](CCCCN)C(=O)N[C@@H](Cc1cccs1)C(N)=O` [UP09] (H-[Aib]RLFKKLLKYLRK[2Thi]-NH2; N-terminus assumed), the survival rate was found to be 40% with P. aeruginosa ATCC 9027 (after 3 d) and 10% with P. aeruginosa ATCC 9027 (after 7 d). Moreover, the “[θ]222” value is “–1842.7 deg⋅cm^2⋅dmol^–1” in series [5] (10 mM PB buffer pH 7.4), “–4643.3 deg⋅cm^2⋅dmol^–1” in series [5] (25 mM SDS in PB), “–11064.1 deg⋅cm^2⋅dmol^–1” in series [5] (0.1% LPS in PB) and “–11436.9 deg⋅cm^2⋅dmol^–1” in series [5] (50% TFE/PB). Further, the “%α-helix” value in series [5] (10 mM PB buffer pH 7.4, rc = random coil) was “rc”; in series [5] (25 mM SDS in PB, rc = random coil), 8.8%; in series [5] (0.1% LPS in PB) it was 30.2%; in series [5] (50% TFE/PB, rc = random coil), 31.5%.

For the origin of these results see paper PMC7688903 (Frontiers in Microbiology, 2020).
